“And” between values parts separate entries of the source, which are not always exact repeats. Equal values may be shown once. Toxic doses and inconclusive results are not listed.
System: P388 leukemia ip, CD2F1 mice, survival T/C
Assay: NCI In Vivo Anticancer Drug Screen. Data for tumor model P388 Leukemia (intraperitoneal) in CD2F1 (CDF1) mice
Conditions: endpoint: median survival time, higher = longer survival
Method in brief: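 Mice carrying the transplanted tumor received test compound or vehicle. Survival was recorded in each group, and the value is the treated-group measurement divided by that of the vehicle-treated control group.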

[1] = dose: 200.0 mg/kg/injection, schedule: Q04DX003 (ip), vehicle: Klucel (hydroxypropylcellulose) (HPC)
[2] = dose: 50.0 mg/kg/injection, schedule: Q01DX009 (ip), vehicle: saline with Tween-80
[3] = dose: 100.0 mg/kg/injection, schedule: Q01DX009 (ip), vehicle: saline with Tween-80
[4] = dose: 200.0 mg/kg/injection, schedule: Q01DX009 (ip), vehicle: saline with Tween-80
[5] = dose: 60.0 mg/kg/injection, schedule: Q01DX005 (ip), vehicle: saline with Tween-80
[6] = dose: 120.0 mg/kg/injection, schedule: Q01DX005 (ip), vehicle: saline with Tween-80
[7] = dose: 240.0 mg/kg/injection, schedule: Q01DX005 (ip), vehicle: saline with Tween-80
[8] = dose: 50.0 mg/kg/injection, schedule: Q01DX005 (ip), vehicle: Klucel (hydroxypropylcellulose) (HPC)
[9] = dose: 100.0 mg/kg/injection, schedule: Q01DX005 (ip), vehicle: Klucel (hydroxypropylcellulose) (HPC)
[10] = dose: 200.0 mg/kg/injection, schedule: Q01DX005 (ip), vehicle: Klucel (hydroxypropylcellulose) (HPC)
[11] = dose: 100.0 mg/kg/injection, schedule: Q04DX002 (ip), vehicle: saline with Tween-80
[12] = dose: 200.0 mg/kg/injection, schedule: Q04DX002 (ip), vehicle: saline with Tween-80
[13] = dose: 400.0 mg/kg/injection, schedule: Q04DX002 (ip), vehicle: saline with Tween-80

## COc1nc(NC2OC(CO)C(O)C(O)C2O)c(Cl)c(=O)[nH]1 (stereo not given)
dose: 60.0 mg/kg/injection, schedule: Q01DX005 (ip), vehicle: saline
  T/C: 97 % of control
dose: 120.0 mg/kg/injection, schedule: Q01DX005 (ip), vehicle: saline
  T/C: 94 % of control
dose: 240.0 mg/kg/injection, schedule: Q01DX005 (ip), vehicle: saline
  T/C: 102 % of control

## CCOC(=O)C12CCOC1(OC)NC(=O)C=C2C(=O)OC (stereo not given)
dose: 100.0 mg/kg/injection, schedule: Q04DX003 (ip), vehicle: Klucel (hydroxypropylcellulose) (HPC)
  T/C: 110 % of control
[1]
  T/C: 110 % of control
dose: 400.0 mg/kg/injection, schedule: Q04DX003 (ip), vehicle: Klucel (hydroxypropylcellulose) (HPC)
  T/C: 118 % of control

## CCCCOc1ccc(OCc2ccc(C)cc2)cc1
[2]
  T/C: 114 % of control
[3]
  T/C: 114 % of control
[4]
  T/C: 91 % of control

## CC(=O)[O][Hg][c]1cc(-c2ccc(N=Nc3c(S(=O)(=O)O)cc4cccc(N)c4c3O)cc2)ccc1N=Nc1c(S(=O)(=O)O)cc2cccc(N)c2c1O
dose: 3.13 mg/kg/injection, schedule: Q04DX003 (ip), vehicle: saline with Tween-80
  T/C: 90 % of control
dose: 6.25 mg/kg/injection, schedule: Q04DX003 (ip), vehicle: saline with Tween-80
  T/C: 95 % of control

## NC(=O)N/N=C/c1cccc(O)c1O
dose: 50.0 mg/kg/injection, schedule: Q01DX009 (ip), vehicle: Klucel (hydroxypropylcellulose) (HPC)
  T/C: 101 % of control
dose: 100.0 mg/kg/injection, schedule: Q01DX009 (ip), vehicle: Klucel (hydroxypropylcellulose) (HPC)
  T/C: 107 % of control
dose: 200.0 mg/kg/injection, schedule: Q01DX009 (ip), vehicle: Klucel (hydroxypropylcellulose) (HPC)
  T/C: 116 % of control

## O/N=C/C=N/O.O/N=C/C=N/O.[Ni]
dose: 0.78 mg/kg/injection, schedule: Q01DX009 (ip), vehicle: saline
  T/C: 100 % of control
dose: 1.56 mg/kg/injection, schedule: Q01DX009 (ip), vehicle: saline
  T/C: 98 % of control
dose: 3.13 mg/kg/injection, schedule: Q01DX009 (ip), vehicle: saline
  T/C: 91 % of control
dose: 6.25 mg/kg/injection, schedule: Q01DX009 (ip), vehicle: saline
  T/C: 97 % of control
dose: 12.5 mg/kg/injection, schedule: Q01DX009 (ip), vehicle: saline
  T/C: 100 % of control

## O=C1NC2Cc3ccccc3C(C2)O1 (stereo not given)
[5]
  T/C: 101 % of control
[6]
  T/C: 100 % of control
[7]
  T/C: 93 % of control

## CN(C)N1C(=O)SCC(c2ccccc2)(c2ccccc2)C1=O
dose: 60.0 mg/kg/injection, schedule: Q01DX005 (ip), vehicle: Klucel (hydroxypropylcellulose) (HPC)
  T/C: 97 % of control
dose: 120.0 mg/kg/injection, schedule: Q01DX005 (ip), vehicle: Klucel (hydroxypropylcellulose) (HPC)
  T/C: 96 % of control
dose: 240.0 mg/kg/injection, schedule: Q01DX005 (ip), vehicle: Klucel (hydroxypropylcellulose) (HPC)
  T/C: 86 % of control

## CCOC(=O)C(NC(=O)C(CO)n1c(-c2ccccc2)c(-c2ccccc2)oc1=O)C(=O)OCC (stereo not given)
[5]
  T/C: 105 % of control
[6]
  T/C: 104 % of control
[7]
  T/C: 90 % of control

## CN(C)C1=CC(=S)NC(c2ccccc2)C1 (stereo not given)
[8]
  T/C: 103 % of control
[9]
  T/C: 100 % of control
[10]
  T/C: 105 % of control

## C/C(=N\N=C(/[Se])N1CCCCCC1)c1ccccn1
dose: 25.0 mg/kg/injection, schedule: Q04DX003 (ip), vehicle: Klucel (hydroxypropylcellulose) (HPC)
  T/C: 110 % of control
dose: 50.0 mg/kg/injection, schedule: Q04DX003 (ip), vehicle: Klucel (hydroxypropylcellulose) (HPC)
  T/C: 118 % of control
[1]
  T/C: 86 % of control

## CCOC(=O)CNC(=O)NCc1ccccc1
[5]
  T/C: 108 % of control
[6]
  T/C: 90 % of control
[7]
  T/C: 96 % of control

## CC(=O)c1cc(C)[nH]c1C
dose: 37.5 mg/kg/injection, schedule: Q01DX009 (ip), vehicle: Klucel (hydroxypropylcellulose) (HPC)
  T/C: 103 % of control
[2]
  T/C: 100 % of control
dose: 50.0 mg/kg/injection, schedule: Q04DX003 (ip), vehicle: saline with Tween-80
  T/C: 100 % of control
dose: 75.0 mg/kg/injection, schedule: Q01DX009 (ip), vehicle: Klucel (hydroxypropylcellulose) (HPC)
  T/C: 103 % of control
[3]
  T/C: 113 % of control
dose: 100.0 mg/kg/injection, schedule: Q04DX003 (ip), vehicle: saline with Tween-80
  T/C: 109 % of control
dose: 150.0 mg/kg/injection, schedule: Q01DX009 (ip), vehicle: Klucel (hydroxypropylcellulose) (HPC)
  T/C: 103 % of control
dose: 150.0 mg/kg/injection, schedule: Q01DX009 (ip), vehicle: saline with Tween-80
  T/C: 105 % of control
[4]
  T/C: 113 % of control
dose: 200.0 mg/kg/injection, schedule: Q04DX003 (ip), vehicle: saline with Tween-80
  T/C: 109 % of control

## Cc1cc(C)cc(C(=O)N=C(c2ccncc2)c2nc(-c3ccccc3)oc2O)c1
[5]
  T/C: 88 % of control
[6]
  T/C: 86 % of control
[7]
  T/C: 88 % of control

## C=CC(C)(C)c1cc(O)c(OC)cc1O
[8]
  T/C: 95 % of control
[9]
  T/C: 102 % of control
[10]
  T/C: 100 % of control

## Clc1cccc2nn3ccnc3n12
dose: 50.0 mg/kg/injection, schedule: Q01DX001 (ip), vehicle: Klucel (hydroxypropylcellulose) (HPC)
  T/C: 105 % of control
dose: 100.0 mg/kg/injection, schedule: Q01DX001 (ip), vehicle: Klucel (hydroxypropylcellulose) (HPC)
  T/C: 99 % of control
dose: 200.0 mg/kg/injection, schedule: Q01DX001 (ip), vehicle: Klucel (hydroxypropylcellulose) (HPC)
  T/C: 102 % of control

## Cn1c(/C=N/NC2=NCCCN2)cnc1[N+](=O)[O-]
[11]
  T/C: 97 % of control
[12]
  T/C: 104 % of control
[13]
  T/C: 107 % of control

## CC(C)(C)N=NNc1ccc(C#N)cc1
[11]
  T/C: 87 % of control
[12]
  T/C: 88 % of control
[13]
  T/C: 88 % of control

## Cn1c2cc([N+](=O)[O-])ccc2c(=O)c2c(O)cc(O)cc21
dose: 100.0 mg/kg/injection, schedule: Q01DX001 (ip), vehicle: saline with Tween-80
  T/C: 101 % of control
dose: 200.0 mg/kg/injection, schedule: Q01DX001 (ip), vehicle: saline with Tween-80
  T/C: 92 % of control
dose: 400.0 mg/kg/injection, schedule: Q01DX001 (ip), vehicle: saline with Tween-80
  T/C: 104 % of control

## CCOCC1COc2c(cc3[nH]cc(C(=O)OCC)c(=O)c3c2Cl)O1 (stereo not given) (tested in a mixture with another compound)
[2]
  T/C: 94 % of control
[3]
  T/C: 99 % of control
[4]
  T/C: 101 % of control

## CC[C@@]1(O)C(=O)OCc2c1cc1n(c2=O)Cc2cc3ccccc3nc2-1
dose: 0.25 mg/kg/injection, schedule: Q04DX003 (ip), vehicle: other
  T/C: 109 % of control
dose: 0.5 mg/kg/injection, schedule: Q04DX003 (ip), vehicle: other
  T/C: 119 % of control and 122 % of control
dose: 0.79 mg/kg/injection, schedule: Q04DX003 (ip), vehicle: other
  T/C: 151 % of control
dose: 1.0 mg/kg/injection, schedule: Q04DX003 (ip), vehicle: other
  T/C: 163 % of control
dose: 1.5 mg/kg/injection, schedule: Q01DX005 (ip), vehicle: saline with Tween-80
  T/C: 153 % of control and 161 % of control (2×)
dose: 1.57 mg/kg/injection, schedule: Q04DX003 (ip), vehicle: other
  T/C: 161 % of control
dose: 1.6 mg/kg/injection, schedule: Q04DX003 (ip), vehicle: saline with Tween-80
  T/C: 150 % of control
dose: 2.0 mg/kg/injection, schedule: Q04DX003 (ip), vehicle: other
  T/C: 157 % of control and 158 % of control
dose: 2.1 mg/kg/injection, schedule: Q01DX005 (ip), vehicle: saline with Tween-80
  T/C: 187 % of control
dose: 2.5 mg/kg/injection, schedule: Q04DX003 (ip), vehicle: saline with Tween-80
  T/C: 181 % of control
dose: 3.0 mg/kg/injection, schedule: Q01DX005 (ip), vehicle: saline with Tween-80
  T/C: 192 % of control and 194 % of control and 196 % of control
dose: 3.13 mg/kg/injection, schedule: Q04DX003 (ip), vehicle: other
  T/C: 278 % of control
dose: 3.6 mg/kg/injection, schedule: Q01DX005 (ip), vehicle: saline with Tween-80
  T/C: 277 % of control
dose: 4.0 mg/kg/injection, schedule: Q04DX003 (ip), vehicle: other
  T/C: 155 % of control and 197 % of control and 245 % of control
dose: 5.0 mg/kg/injection, schedule: Q04DX002 (ip), vehicle: saline with Tween-80
  T/C: 175 % of control
dose: 8.0 mg/kg/injection, schedule: Q04DX003 (ip), vehicle: other
  T/C: 92 % of control
dose: 12.0 mg/kg/injection, schedule: Q01DX005 (ip), vehicle: saline with Tween-80
  T/C: 87 % of control

— PubChem BioAssay AID330 (DTP/NCI, 2004)
